Test results reported in patent US11446309B2, “Combination therapy for cancer using bromodomain and extra-terminal (BET) protein inhibitors” (Dana-Farber Cancer Institute, Inc., priority 2013, dated 2022).

Test system: H2122 human lung cancer line, m855 mouse GEM line, diffuse large B-cell lymphoma and Burkitt's lymphoma cell lines
Test: Combination with JQ1, cell viability isobolograms (cell line not stated for the result)
Format: cell-based
Conditions: for Effect on JQ1 activity at doses where the agent alone has no effect: in combination with JQ1, doses where they alone have no effect
Description: Compounds were profiled against H2122 human lung cancer line and m855 mouse GEM line containing p53/kRas mutations. Compounds were also profiled against diffuse large B-cell lymphoma cell lines OCI-Ly1, OCI-Ly3, OCI-Ly4, OCI-Ly7, S-DHL4, SU-DHL6, SU-DHL7, HBL1, K422, U2932 and Toledo, and against Burkitt's lymphoma cell lines Raji and Ca46.
Using a Biotek EL406, 50 uL of cell media containing 20-60,000 cells/ml was distributed into white 384-well Nunc plates (Thermo). Suspension cells then received compound immediately while adherent cells lines were given one hour to reattach to the surface of the plate prior to compound addition. The compounds to be tested were dissolved in DMSO and arrayed on 384 well compound storage plates (Greiner). Each compound plate received one compound in 5 point dose response approximately centered on the IC50 of the given compound for a given cell line.
After addition of compound, cell plates were incubated for 72 hr in a […] incubator. Cell viability was evaluated using ATPlite (Perkin Elmer) following manufacturer protocols. Data was analyzed in CalcuSyn utilizing the median effect principle of presented by Chou-Talalay and visualized using GraphPad Prism Software. Key parameters assessed were combination index and dose reduction index.
Points below the 1 to 1 line connecting the X and Y axes are ‘synergistic’, points near the line are ‘additive’, and points above it are antagonistic.

| SMILES | Type of response when administered in combination with JQ1 (isobologram) | Effect on JQ1 activity at doses where the agent alone has no effect |
| --- | --- | --- |
| COc1cc([C@@H]2c3cc4c(cc3[C@@H](O[C@@H]3O[C@@H]5CO[C@@H](C)O[C@H]5[C@H](O)[C@H]3O)[C@H]3COC(=O)[C@H]23)OCO4)cc(OC)c1O [etoposide] | synergistic response |  |
| CO[C@H]1C[C@@H]2CC[C@@H](C)[C@@](O)(O2)C(=O)C(=O)N2CCCC[C@H]2C(=O)O[C@H]([C@H](C)C[C@@H]2CC[C@@H](OC(=O)C(C)(CO)CO)[C@H](OC)C2)CC(=O)[C@H](C)/C=C(\C)[C@@H](O)[C@@H](OC)C(=O)[C@H](C)C[C@H](C)/C=C/C=C/C=C/1C [temsirolimus] | additive effects | increased the effect of JQ1 |
| NC1(c2ccc(-c3nc4ccn5c(=O)[nH]nc5c4cc3-c3ccccc3)cc2)CCC1 [MK2206] | synergistic response |  |
| Cn1c(=O)n(-c2ccc(C(C)(C)C#N)cc2)c2c3cc(-c4cnc5ccccc5c4)ccc3ncc21 [BEZ235] | additive effects | increased the effect of JQ1 |
| C[C@@H](Oc1cc(-c2cnn(C3CCNCC3)c2)cnc1N)c1c(Cl)ccc(F)c1Cl [crizotinib] | synergistic response |  |
